Source: patent US20200055844A1, “4-SULFONYLAMINOCARBONYLQUINOLINE DERIVATIVES FOR INCREASING CFTR ACTIVITY” (Proteostasis Therapeutics, Inc., priority 2017, published 2020)

target: T1, ΔF508-CFTR (Homo sapiens, UniProt P13569, DEL508-508); assay: hBE equivalent current (Ieq) assay; format: cell-based; conditions: AUC of equivalent chloride current, % of CFTR amplifier (Compound A)+VX-809 (3 uM); compound at 10 uM and Compound A at 3 uM; primary lung epithelial cells homozygous ΔF508, 24 hours treatment
T1 construct: Primary lung epithelial cells homozygous for the Cystic Fibrosis-causing ΔF508 mutation were differentiated; endogenous in cells; host or cells: primary lung (bronchial) epithelial cells (hBE) homozygous for ΔF508, differentiated at an air-liquid interface
T1 sequence (P13569 with tags, fused parts or gaps DEL508-508): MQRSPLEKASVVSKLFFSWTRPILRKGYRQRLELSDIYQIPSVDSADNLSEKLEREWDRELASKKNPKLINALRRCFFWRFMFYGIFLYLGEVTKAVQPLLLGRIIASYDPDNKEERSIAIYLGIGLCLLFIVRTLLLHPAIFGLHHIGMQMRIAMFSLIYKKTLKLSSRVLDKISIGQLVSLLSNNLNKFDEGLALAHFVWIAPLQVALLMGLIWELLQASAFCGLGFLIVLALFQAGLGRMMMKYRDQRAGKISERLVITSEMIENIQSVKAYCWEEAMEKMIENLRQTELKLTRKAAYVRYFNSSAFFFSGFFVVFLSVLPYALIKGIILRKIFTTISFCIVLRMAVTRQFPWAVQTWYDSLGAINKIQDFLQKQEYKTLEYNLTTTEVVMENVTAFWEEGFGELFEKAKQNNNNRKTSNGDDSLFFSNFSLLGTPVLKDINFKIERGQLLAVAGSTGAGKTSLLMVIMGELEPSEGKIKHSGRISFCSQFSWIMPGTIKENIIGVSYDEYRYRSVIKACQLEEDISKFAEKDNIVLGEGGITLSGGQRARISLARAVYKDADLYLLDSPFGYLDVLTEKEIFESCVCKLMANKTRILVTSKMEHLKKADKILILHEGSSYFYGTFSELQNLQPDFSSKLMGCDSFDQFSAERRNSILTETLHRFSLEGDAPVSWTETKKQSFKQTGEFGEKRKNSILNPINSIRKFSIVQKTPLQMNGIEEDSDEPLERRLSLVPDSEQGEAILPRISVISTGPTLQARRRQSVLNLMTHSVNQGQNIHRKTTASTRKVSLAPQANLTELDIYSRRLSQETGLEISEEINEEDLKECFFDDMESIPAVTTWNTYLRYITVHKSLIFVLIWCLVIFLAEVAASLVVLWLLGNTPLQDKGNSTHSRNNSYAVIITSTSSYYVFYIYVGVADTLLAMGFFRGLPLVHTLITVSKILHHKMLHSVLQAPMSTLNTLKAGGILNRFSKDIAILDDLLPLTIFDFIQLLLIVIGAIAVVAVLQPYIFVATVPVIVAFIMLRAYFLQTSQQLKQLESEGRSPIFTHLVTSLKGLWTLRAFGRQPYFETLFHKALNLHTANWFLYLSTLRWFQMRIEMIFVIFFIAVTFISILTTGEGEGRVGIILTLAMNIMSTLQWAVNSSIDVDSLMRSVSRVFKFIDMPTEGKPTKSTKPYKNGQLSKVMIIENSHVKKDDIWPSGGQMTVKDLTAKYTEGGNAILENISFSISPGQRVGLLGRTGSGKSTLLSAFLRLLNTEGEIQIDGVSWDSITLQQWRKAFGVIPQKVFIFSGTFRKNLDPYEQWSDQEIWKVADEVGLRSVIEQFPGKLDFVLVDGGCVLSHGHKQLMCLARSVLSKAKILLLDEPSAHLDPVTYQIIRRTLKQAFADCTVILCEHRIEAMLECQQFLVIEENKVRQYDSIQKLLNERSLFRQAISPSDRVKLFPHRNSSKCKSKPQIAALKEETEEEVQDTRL
Experimental: ii. hBE Equivalent Current (Ieq) Assay
Primary lung epithelial cells homozygous for the Cystic Fibrosis-causing ΔF508 mutation were differentiated for a minimum of 4 weeks in an air-liquid interface on Costar 24 well HTS filter plates prior to the equivalent current (Ieq) measurements. Cells were apically mucus-washed for 30 minutes 24 h prior to treatment with compounds. The basolateral media was removed and replaced with media containing the compound of interest diluted to its final concentration from DMSO stocks. Treated cells were incubated at 37° C. and 5% CO2 for 24 hours. At the end of the treatment period, the media was changed to the Ieq experimental solution for 2 hours before the experiment and plates are maintained in a CO2-free incubator during this period. The plates containing the cells were then placed in pre-warmed heating blocks at 36° C.±0.5 for 15 minutes before measurements are taken. The transepithelial voltage (VT) and conductance (Gr) were measured using a custom 24 channel current clamp (TECC-24) with 24 well electrode manifold. The Ieq assay measurements were made following additions with standardized time periods: • 1. The baseline VT and Gr values were measured for approximately 20 minutes. • 2. Benzamil was added to block ENaC for 15 minutes. • 3. Forskolin plus VX-770 were added to maximally activate ΔF508-CFTR for 27 minutes. • 4. Bumetanide was added to inhibit the NaK2Cl cotransporter and shut-off secretion of chloride.
The activity data captured was the area under the curve (AUC) for the traces of the equivalent chloride current. The AUC was collected from the time of the forskolin/VX-770 addition until the inhibition by bumetanide addition. Correction in response to compound treatment was scored as the increase in the AUC for compound-treated samples over that of vehicle-treated samples.
(+ indicates activity <100% of a CFTR amplifier (Compound A)+VX-809 (3 uM) with compound at 10 uM and Compound A at 3 uM; ++ indicates activity ≥100% and <200% of CFTR amplifier+VX-809 (3 uM) with compound at 10 uM and Compound A at 3 uM; +++ indicates activity >200% of CFTR amplifier+VX-809 (3 uM) with compound at 10 uM and Compound A at 3 uM.

Question: Which Activity does the source give for Cc1c(-c2cc(C(=O)NS(C)(=O)=O)c3c(O[C@H](C)c4ccccc4)ccc(C)c3n2)sc2ccccc12 [Compound 1] here?
Answer: The Activity was “+++ (activity >200% of CFTR amplifier+VX-809 (3 uM) with compound at 10 uM and Compound A at 3 uM)”.

Question: How did the Activity turn out when Cc1c(-c2cc(C(=O)NS(C)(=O)=O)c3c(O[C@H](C)c4ccccc4)ccc(C)c3n2)oc2ccccc12 [Compound 2] was run?
Answer: Its Activity is “+++ (activity >200% of CFTR amplifier+VX-809 (3 uM) with compound at 10 uM and Compound A at 3 uM)”.

Question: For Cc1c(-c2cc(C(=O)NS(=O)(=O)C3CC3)c3c(O[C@H](C)c4ccccc4)ccc(C)c3n2)sc2ccccc12 [Compound 3], which Activity is on record?
Answer: The Activity was “++ (activity ≥100% and <200% of CFTR amplifier+VX-809 (3 uM) with compound at 10 uM and Compound A at 3 uM)”.

Question: How did the Activity turn out when Cc1c(-c2cc(C(=O)NS(=O)(=O)C3CC3)c3c(O[C@H](C)c4ccccc4)ccc(C)c3n2)oc2ccccc12 [Compound 4] was run?
Answer: The Activity was “++ (activity ≥100% and <200% of CFTR amplifier+VX-809 (3 uM) with compound at 10 uM and Compound A at 3 uM)”.

Question: Cc1c(-c2cc(C(=O)NS(=O)(=O)N3CCOCC3)c3c(O[C@H](C)c4ccccc4)ccc(C)c3n2)sc2ccccc12 [Compound 7] was tested. Which Activity did it give?
Answer: Its Activity is “+++ (activity >200% of CFTR amplifier+VX-809 (3 uM) with compound at 10 uM and Compound A at 3 uM)”.

Question: Which Activity does the source give for Cc1c(-c2cc(C(=O)NS(=O)(=O)N3CCOCC3)c3c(O[C@H](C)c4ccccc4)ccc(C)c3n2)oc2ccccc12 [Compound 8] here?
Answer: The Activity was “+ (activity <100% of a CFTR amplifier (Compound A)+VX-809 (3 uM) with compound at 10 uM and Compound A at 3 uM)”.

Question: Which Activity does the source give for Cc1c(-c2cc(C(=O)NS(=O)(=O)c3ccccc3)c3c(O[C@H](C)c4ccccc4)ccc(C)c3n2)sc2ccccc12 [Compound 9] here?
Answer: Its Activity is “++ (activity ≥100% and <200% of CFTR amplifier+VX-809 (3 uM) with compound at 10 uM and Compound A at 3 uM)”.

Question: Cc1c(-c2cc(C(=O)NS(=O)(=O)c3ccccc3)c3c(O[C@H](C)c4ccccc4)ccc(C)c3n2)oc2ccccc12 [Compound 10] was tested. Which Activity did it give?
Answer: The Activity was “++ (activity ≥100% and <200% of CFTR amplifier+VX-809 (3 uM) with compound at 10 uM and Compound A at 3 uM)”.

Question: For Cc1c(-c2cc(C(=O)NS(=O)(=O)c3cccc(N)n3)c3c(O[C@H](C)c4ccccc4)ccc(C)c3n2)sc2ccccc12 [Compound 11], which Activity is on record?
Answer: The Activity was “++ (activity ≥100% and <200% of CFTR amplifier+VX-809 (3 uM) with compound at 10 uM and Compound A at 3 uM)”.

Question: For Cc1c(-c2cc(C(=O)NS(=O)(=O)c3cccc(N)n3)c3c(O[C@H](C)c4ccccc4)ccc(C)c3n2)oc2ccccc12 [Compound 12], which Activity is on record?
Answer: Its Activity is “++ (activity ≥100% and <200% of CFTR amplifier+VX-809 (3 uM) with compound at 10 uM and Compound A at 3 uM)”.

Question: With Cc1c(-c2cc(C(=O)NS(=O)(=O)c3cccc(N)c3)c3c(O[C@H](C)c4ccccc4)ccc(C)c3n2)sc2ccccc12 [Compound 13] as the compound, how does the Activity read?
Answer: The Activity was “+++ (activity >200% of CFTR amplifier+VX-809 (3 uM) with compound at 10 uM and Compound A at 3 uM)”.

Question: For Cc1c(-c2cc(C(=O)NS(=O)(=O)c3cccc(N)c3)c3c(O[C@H](C)c4ccccc4)ccc(C)c3n2)oc2ccccc12 [Compound 14], which Activity is on record?
Answer: The Activity was “+++ (activity >200% of CFTR amplifier+VX-809 (3 uM) with compound at 10 uM and Compound A at 3 uM)”.

Question: Cc1c(-c2cc(C(=O)NS(=O)(=O)N3CC[C@H](N)C3)c3c(O[C@H](C)c4ccccc4)ccc(C)c3n2)sc2ccccc12 [Compound 15] was tested. Which Activity did it give?
Answer: The Activity was “++ (activity ≥100% and <200% of CFTR amplifier+VX-809 (3 uM) with compound at 10 uM and Compound A at 3 uM)”.

Question: Which Activity does the source give for Cc1c(-c2cc(C(=O)NS(=O)(=O)N3CC[C@H](N)C3)c3c(O[C@H](C)c4ccccc4)ccc(C)c3n2)oc2ccccc12 [Compound 16] here?
Answer: The Activity was “+++ (activity >200% of CFTR amplifier+VX-809 (3 uM) with compound at 10 uM and Compound A at 3 uM)”.

Question: For Cc1c(-c2cc(C(=O)NS(=O)(=O)c3cnc(N)s3)c3c(O[C@H](C)c4ccccc4)ccc(C)c3n2)sc2ccccc12 [Compound 17], which Activity is on record?
Answer: The Activity was “+++ (activity >200% of CFTR amplifier+VX-809 (3 uM) with compound at 10 uM and Compound A at 3 uM)”.

Question: How did the Activity turn out when Cc1c(-c2cc(C(=O)NS(=O)(=O)c3cnc(N)s3)c3c(O[C@H](C)c4ccccc4)ccc(C)c3n2)oc2ccccc12 [Compound 18] was run?
Answer: The Activity was “+ (activity <100% of a CFTR amplifier (Compound A)+VX-809 (3 uM) with compound at 10 uM and Compound A at 3 uM)”.
